In ChEMBL document CHEMBL4507300 (2021):

Assays:
[1] = molecular target: Serine/threonine-protein kinase D3 (Homo sapiens) (UniProt O94806); conditions: Compound concentration 1000.0 nM
[2] = molecular target: Focal adhesion kinase 1 (Homo sapiens) (UniProt Q05397); conditions: Compound concentration 1000.0 nM
[3] = molecular target: Serine/threonine-protein kinase D1 (Homo sapiens) (UniProt Q15139); conditions: Compound concentration 1000.0 nM
[4] = system: Mast/stem cell growth factor receptor Kit (Homo sapiens), P10721 [V559D,T670I]; conditions: Compound concentration 1000.0 nM
[5] = molecular target: Serine/threonine-protein kinase Nek6 (Homo sapiens) (UniProt Q9HC98); conditions: Compound concentration 1000.0 nM
[6] = molecular target: Serine/threonine-protein kinase PAK 3 (Homo sapiens) (UniProt O75914); conditions: Compound concentration 1000.0 nM
[7] = molecular target: Tyrosine-protein kinase CSK (Homo sapiens) (UniProt P41240); conditions: Compound concentration 1000.0 nM
[8] = molecular target: Serine/threonine-protein kinase Chk1 (Homo sapiens) (UniProt O14757); conditions: Compound concentration 1000.0 nM
[9] = molecular target: Calcium/calmodulin-dependent protein kinase kinase 1 (Homo sapiens) (UniProt Q8N5S9); conditions: Compound concentration 1000.0 nM
[10] = molecular target: Cyclin-dependent kinase 2 (Homo sapiens) (UniProt P24941); conditions: Compound concentration 1000.0 nM
[11] = molecular target: Megakaryocyte-associated tyrosine-protein kinase (Homo sapiens) (UniProt P42679); conditions: Compound concentration 1000.0 nM
[12] = molecular target: Tyrosine-protein kinase TXK (Homo sapiens) (UniProt P42681); conditions: Compound concentration 1000.0 nM
[13] = molecular target: Mitotic checkpoint serine/threonine-protein kinase BUB1 (Homo sapiens) (UniProt O43683); conditions: Compound concentration 1000.0 nM
[14] = molecular target: cAMP-dependent protein kinase catalytic subunit beta (Homo sapiens) (UniProt P22694); conditions: Compound concentration 1000.0 nM
[15] = molecular target: RAC-gamma serine/threonine-protein kinase (Homo sapiens) (UniProt Q9Y243); conditions: Compound concentration 1000.0 nM
[16] = molecular target: Cyclin-dependent kinase 11A (Homo sapiens) (UniProt Q9UQ88); conditions: Compound concentration 1000.0 nM
[17] = system: Proto-oncogene tyrosine-protein kinase receptor Ret (Homo sapiens), P07949 [V804L]; conditions: Compound concentration 1000.0 nM
[18] = molecular target: G protein-coupled receptor kinase 4 (Homo sapiens) (UniProt P32298); conditions: Compound concentration 1000.0 nM
[19] = molecular target: Dual specificity tyrosine-phosphorylation-regulated kinase 1B (Homo sapiens) (UniProt Q9Y463); conditions: Compound concentration 1000.0 nM
[20] = molecular target: Ephrin type-A receptor 3 (Homo sapiens) (UniProt P29320); conditions: Compound concentration 1000.0 nM
[21] = system: Phosphatidylinositol 4,5-bisphosphate 3-kinase catalytic subunit alpha isoform (Homo sapiens), P42336 [M1043I]; conditions: Compound concentration 1000.0 nM
[22] = molecular target: Misshapen-like kinase 1 (Homo sapiens) (UniProt Q8N4C8); conditions: Compound concentration 1000.0 nM
[23] = molecular target: Dual specificity mitogen-activated protein kinase kinase 7 (Homo sapiens) (UniProt O14733); conditions: Compound concentration 1000.0 nM
[24] = molecular target: Transient receptor potential cation channel subfamily M member 6 (Homo sapiens) (UniProt Q9BX84); conditions: Compound concentration 1000.0 nM
[25] = molecular target: cAMP-dependent protein kinase catalytic subunit alpha (Homo sapiens) (UniProt P17612); conditions: Compound concentration 1000.0 nM
[26] = system: Receptor-type tyrosine-protein kinase FLT3 (Homo sapiens), P36888 [UNDEFINED MUTATION]; conditions: Compound concentration 1000.0 nM
[27] = molecular target: Serine/threonine-protein kinase 38 (Homo sapiens) (UniProt Q15208); conditions: Compound concentration 1000.0 nM
[28] = molecular target: Serine/threonine-protein kinase MRCK beta (Homo sapiens) (UniProt Q9Y5S2); conditions: Compound concentration 1000.0 nM
[29] = molecular target: Tyrosine-protein kinase ZAP-70 (Homo sapiens) (UniProt P43403); conditions: Compound concentration 1000.0 nM
[30] = molecular target: Alpha-1B adrenergic receptor (Homo sapiens) (UniProt P35368); conditions: Compound concentration 10.0 uM
[31] = molecular target: Rhodopsin kinase GRK7 (Homo sapiens) (UniProt Q8WTQ7); conditions: Compound concentration 1000.0 nM
[32] = system: Tyrosine-protein kinase ABL1 (Homo sapiens), P00519 [Q252H]; conditions: Compound concentration 1000.0 nM
[33] = molecular target: Serine/threonine-protein kinase PknB (Mycobacterium tuberculosis) (UniProt P9WI81); conditions: Compound concentration 1000.0 nM
[34] = molecular target: Glycogen synthase kinase-3 beta (Homo sapiens) (UniProt P49841); conditions: Compound concentration 1000.0 nM
[35] = molecular target: Cyclin-dependent kinase 7 (Homo sapiens) (UniProt P50613); conditions: Compound concentration 1000.0 nM
[36] = molecular target: Tyrosine-protein kinase Yes (Homo sapiens) (UniProt P07947); conditions: Compound concentration 1000.0 nM
[37] = molecular target: Cytoplasmic tyrosine-protein kinase BMX (Homo sapiens) (UniProt P51813); conditions: Compound concentration 1000.0 nM
[38] = system: Tyrosine-protein kinase ABL1 (Homo sapiens), P00519 [Y253F]; conditions: Compound concentration 1000.0 nM
[39] = molecular target: Tyrosine-protein kinase Fer (Homo sapiens) (UniProt P16591); conditions: Compound concentration 1000.0 nM
[40] = molecular target: Serine/threonine-protein kinase SIK2 (Homo sapiens) (UniProt Q9H0K1); conditions: Compound concentration 1000.0 nM
[41] = molecular target: Serine/threonine-protein kinase pim-1 (Homo sapiens) (UniProt P11309); conditions: Compound concentration 1000.0 nM
[42] = molecular target: D(3) dopamine receptor (Homo sapiens) (UniProt P35462); conditions: Compound concentration 10.0 uM
[43] = molecular target: Calcium/calmodulin-dependent protein kinase type II subunit gamma (Homo sapiens) (UniProt Q13555); conditions: Compound concentration 1000.0 nM
[44] = system: Epidermal growth factor receptor (Homo sapiens), P00533 [UNDEFINED MUTATION]; conditions: Compound concentration 1000.0 nM
[45] = molecular target: cGMP-dependent protein kinase 2 (Homo sapiens) (UniProt Q13237); conditions: Compound concentration 1000.0 nM

Sequence of Receptor-type tyrosine-protein kinase FLT3 (Homo sapiens), P36888 [UNDEFINED MUTATION] (P36888 whole entry, looked up, change not shown): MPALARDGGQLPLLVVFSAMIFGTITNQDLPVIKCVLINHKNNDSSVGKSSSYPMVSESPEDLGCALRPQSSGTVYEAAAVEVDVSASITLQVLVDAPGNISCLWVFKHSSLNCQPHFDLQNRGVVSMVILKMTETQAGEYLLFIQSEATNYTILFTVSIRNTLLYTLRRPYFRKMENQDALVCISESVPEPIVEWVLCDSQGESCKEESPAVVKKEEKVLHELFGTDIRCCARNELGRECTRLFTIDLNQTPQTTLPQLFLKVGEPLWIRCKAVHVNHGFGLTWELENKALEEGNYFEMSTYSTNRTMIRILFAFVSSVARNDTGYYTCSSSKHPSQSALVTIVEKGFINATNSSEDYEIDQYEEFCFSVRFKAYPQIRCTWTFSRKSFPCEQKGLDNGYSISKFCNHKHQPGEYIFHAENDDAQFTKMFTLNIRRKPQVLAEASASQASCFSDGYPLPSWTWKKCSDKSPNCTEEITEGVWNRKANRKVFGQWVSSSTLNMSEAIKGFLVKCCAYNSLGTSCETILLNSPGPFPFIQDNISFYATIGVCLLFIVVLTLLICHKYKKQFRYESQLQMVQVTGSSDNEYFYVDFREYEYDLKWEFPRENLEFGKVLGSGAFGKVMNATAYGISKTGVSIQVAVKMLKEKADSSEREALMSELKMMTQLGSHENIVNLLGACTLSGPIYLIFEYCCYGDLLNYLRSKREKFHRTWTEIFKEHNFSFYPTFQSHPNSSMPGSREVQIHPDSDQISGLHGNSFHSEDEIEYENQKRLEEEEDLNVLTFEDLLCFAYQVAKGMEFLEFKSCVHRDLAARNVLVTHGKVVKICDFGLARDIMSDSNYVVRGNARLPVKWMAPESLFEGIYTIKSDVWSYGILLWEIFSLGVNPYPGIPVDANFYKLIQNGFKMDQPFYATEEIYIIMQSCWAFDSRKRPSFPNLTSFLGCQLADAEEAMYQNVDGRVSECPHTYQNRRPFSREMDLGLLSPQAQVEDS
Sequence of Serine/threonine-protein kinase Chk1 (Homo sapiens) (O14757 whole entry): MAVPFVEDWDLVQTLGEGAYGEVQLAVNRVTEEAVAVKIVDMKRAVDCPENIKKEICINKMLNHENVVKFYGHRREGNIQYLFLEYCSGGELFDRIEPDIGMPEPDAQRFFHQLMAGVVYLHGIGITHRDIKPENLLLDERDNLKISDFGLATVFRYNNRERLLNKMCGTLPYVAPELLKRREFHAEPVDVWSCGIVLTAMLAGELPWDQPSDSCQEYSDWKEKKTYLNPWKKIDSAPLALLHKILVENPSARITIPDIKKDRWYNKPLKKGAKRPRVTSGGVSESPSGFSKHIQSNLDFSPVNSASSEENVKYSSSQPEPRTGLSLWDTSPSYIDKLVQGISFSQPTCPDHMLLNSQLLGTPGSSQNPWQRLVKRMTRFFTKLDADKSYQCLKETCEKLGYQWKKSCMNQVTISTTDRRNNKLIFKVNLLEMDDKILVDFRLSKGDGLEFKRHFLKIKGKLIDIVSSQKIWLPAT
Sequence of Cyclin-dependent kinase 11A (Homo sapiens) (Q9UQ88 whole entry): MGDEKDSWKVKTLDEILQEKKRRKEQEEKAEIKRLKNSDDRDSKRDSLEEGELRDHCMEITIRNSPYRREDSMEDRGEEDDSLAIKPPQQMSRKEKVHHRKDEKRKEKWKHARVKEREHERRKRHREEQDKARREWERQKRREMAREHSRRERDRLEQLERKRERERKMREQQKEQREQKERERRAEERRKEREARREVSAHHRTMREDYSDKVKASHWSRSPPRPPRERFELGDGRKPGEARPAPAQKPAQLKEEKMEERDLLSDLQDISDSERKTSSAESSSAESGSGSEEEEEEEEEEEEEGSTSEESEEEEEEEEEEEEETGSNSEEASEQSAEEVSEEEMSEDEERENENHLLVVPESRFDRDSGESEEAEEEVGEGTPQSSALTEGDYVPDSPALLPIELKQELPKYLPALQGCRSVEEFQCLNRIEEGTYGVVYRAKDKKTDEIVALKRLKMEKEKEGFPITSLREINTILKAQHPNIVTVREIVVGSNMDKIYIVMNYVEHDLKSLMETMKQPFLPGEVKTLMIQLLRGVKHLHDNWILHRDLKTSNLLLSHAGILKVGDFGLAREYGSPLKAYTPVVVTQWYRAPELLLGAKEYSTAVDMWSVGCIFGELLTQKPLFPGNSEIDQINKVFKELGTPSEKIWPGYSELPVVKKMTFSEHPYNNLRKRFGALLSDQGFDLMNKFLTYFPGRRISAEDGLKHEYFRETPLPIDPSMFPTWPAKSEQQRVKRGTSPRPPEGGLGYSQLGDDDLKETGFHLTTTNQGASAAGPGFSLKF
Sequence of Serine/threonine-protein kinase MRCK beta (Homo sapiens) (Q9Y5S2 whole entry): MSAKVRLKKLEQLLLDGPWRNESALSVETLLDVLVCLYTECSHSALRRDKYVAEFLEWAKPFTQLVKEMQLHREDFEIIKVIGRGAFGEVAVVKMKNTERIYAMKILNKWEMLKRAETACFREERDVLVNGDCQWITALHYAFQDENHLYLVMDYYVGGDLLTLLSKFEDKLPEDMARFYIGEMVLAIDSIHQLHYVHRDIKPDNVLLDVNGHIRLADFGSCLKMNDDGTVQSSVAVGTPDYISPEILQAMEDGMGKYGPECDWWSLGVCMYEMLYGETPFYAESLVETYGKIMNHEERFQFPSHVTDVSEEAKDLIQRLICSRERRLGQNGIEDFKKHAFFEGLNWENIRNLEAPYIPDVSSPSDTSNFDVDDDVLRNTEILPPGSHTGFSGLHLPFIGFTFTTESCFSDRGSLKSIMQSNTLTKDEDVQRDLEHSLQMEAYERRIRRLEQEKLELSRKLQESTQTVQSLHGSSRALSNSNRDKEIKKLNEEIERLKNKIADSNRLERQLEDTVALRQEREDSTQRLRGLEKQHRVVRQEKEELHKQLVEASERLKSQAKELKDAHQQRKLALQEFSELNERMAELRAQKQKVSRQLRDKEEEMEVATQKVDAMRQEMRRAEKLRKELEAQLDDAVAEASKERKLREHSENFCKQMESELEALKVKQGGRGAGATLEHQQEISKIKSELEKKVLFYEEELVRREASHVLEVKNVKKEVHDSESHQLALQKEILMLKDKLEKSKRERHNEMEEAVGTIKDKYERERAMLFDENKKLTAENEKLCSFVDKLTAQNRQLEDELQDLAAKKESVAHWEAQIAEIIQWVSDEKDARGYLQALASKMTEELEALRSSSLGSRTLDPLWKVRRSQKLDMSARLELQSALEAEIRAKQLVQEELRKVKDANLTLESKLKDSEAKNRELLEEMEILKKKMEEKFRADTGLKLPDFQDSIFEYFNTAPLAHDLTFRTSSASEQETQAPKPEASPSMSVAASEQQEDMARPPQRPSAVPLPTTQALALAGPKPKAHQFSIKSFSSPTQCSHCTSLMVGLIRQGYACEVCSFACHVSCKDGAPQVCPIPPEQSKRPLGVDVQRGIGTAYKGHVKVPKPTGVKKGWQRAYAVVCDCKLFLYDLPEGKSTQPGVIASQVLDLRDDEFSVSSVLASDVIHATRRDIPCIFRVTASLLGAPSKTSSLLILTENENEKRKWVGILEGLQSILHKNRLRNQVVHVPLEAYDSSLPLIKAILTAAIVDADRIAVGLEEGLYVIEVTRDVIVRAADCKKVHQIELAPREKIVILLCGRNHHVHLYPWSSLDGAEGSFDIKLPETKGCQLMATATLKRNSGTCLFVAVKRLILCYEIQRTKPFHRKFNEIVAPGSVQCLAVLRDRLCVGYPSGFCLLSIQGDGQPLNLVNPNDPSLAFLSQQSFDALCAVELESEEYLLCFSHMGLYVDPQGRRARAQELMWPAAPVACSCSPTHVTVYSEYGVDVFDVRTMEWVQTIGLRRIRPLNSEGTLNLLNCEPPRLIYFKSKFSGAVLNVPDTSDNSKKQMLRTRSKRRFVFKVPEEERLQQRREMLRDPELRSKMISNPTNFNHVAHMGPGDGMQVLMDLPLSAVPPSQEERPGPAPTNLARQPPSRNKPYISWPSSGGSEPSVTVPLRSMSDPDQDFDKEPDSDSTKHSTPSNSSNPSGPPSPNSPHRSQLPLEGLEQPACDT
Sequence of RAC-gamma serine/threonine-protein kinase (Homo sapiens) (Q9Y243 whole entry): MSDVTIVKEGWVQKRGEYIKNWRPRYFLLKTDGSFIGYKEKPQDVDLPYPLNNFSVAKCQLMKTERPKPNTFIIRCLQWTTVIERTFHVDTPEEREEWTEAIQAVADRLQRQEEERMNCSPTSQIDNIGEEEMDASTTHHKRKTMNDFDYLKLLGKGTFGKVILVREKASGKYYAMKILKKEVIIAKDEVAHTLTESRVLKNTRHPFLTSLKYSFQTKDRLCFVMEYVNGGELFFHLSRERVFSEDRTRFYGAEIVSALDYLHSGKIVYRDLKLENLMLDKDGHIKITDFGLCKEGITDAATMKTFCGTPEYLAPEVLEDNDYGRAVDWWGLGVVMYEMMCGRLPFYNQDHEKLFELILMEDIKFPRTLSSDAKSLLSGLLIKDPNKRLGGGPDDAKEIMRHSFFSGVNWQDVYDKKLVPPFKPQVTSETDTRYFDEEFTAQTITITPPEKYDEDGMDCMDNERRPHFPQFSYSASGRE
Sequence of D(3) dopamine receptor (Homo sapiens) (P35462 whole entry): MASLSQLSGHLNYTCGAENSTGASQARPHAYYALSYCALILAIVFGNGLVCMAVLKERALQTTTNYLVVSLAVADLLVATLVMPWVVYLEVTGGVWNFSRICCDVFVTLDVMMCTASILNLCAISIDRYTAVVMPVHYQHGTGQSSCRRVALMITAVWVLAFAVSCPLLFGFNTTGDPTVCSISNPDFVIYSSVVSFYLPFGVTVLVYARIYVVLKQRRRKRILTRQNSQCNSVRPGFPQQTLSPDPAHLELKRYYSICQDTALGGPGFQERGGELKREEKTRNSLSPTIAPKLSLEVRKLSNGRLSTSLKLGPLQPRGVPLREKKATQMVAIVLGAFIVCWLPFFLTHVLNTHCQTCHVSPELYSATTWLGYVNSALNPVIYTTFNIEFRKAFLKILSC

COc1cccc(CNC(=O)c2nc3scc(COCc4ccc(C(=O)O)cc4)c3c(=O)[nH]2)c1 [T-26c]
inactive: residual activity [1] 100% | residual activity [2] 100% | residual activity [3] 100% | residual activity [4] 100% | residual activity [5] 71% | residual activity [6] 51.9% | residual activity [7] 100% | residual activity [8] 95.5% | residual activity [9] 100% | residual activity [10] 100% | residual activity [11] 97.8% | residual activity [12] 87.7% | residual activity [13] 70.2% | residual activity [14] 91.1% | residual activity [15] 84.8% | residual activity [16] 99.2% | residual activity [17] 76.7% | residual activity [18] 72.1% | residual activity [19] 100% | residual activity [20] 91.3% | residual activity [21] 100% | residual activity [22] 74.9% | residual activity [23] 81.2% | residual activity [24] 81.8% | residual activity [25] 100% | residual activity [26] 93.7% | residual activity [27] 72% | residual activity [28] 99.5% | residual activity [29] 67.1% | inhibition [30] 7.58% | residual activity [31] 67% | residual activity [32] 91.4% | residual activity [33] 93% | residual activity [34] 62.6% | residual activity [35] 80.5% | residual activity [36] 85.2% | residual activity [37] 100% | residual activity [38] 84.6% | residual activity [39] 100% | residual activity [40] 86.4% | residual activity [41] 100% | inhibition [42] 10.5% | residual activity [43] 100% | residual activity [44] 98.7% | residual activity [45] 100%
